Our source for the Osmolality values is patent US20190076466A1, “REDUCED SODIUM POLOXAMER-188 FORMULATIONS AND METHODS FOR USE” (MAST THERAPEUTICS, INC., priority 2015, published 2019).

A short description of this series: osmolality by vapor pressure osmometry. The settings on record: no poloxamer.

Description: The osmolality of LCMF poloxamer 188 in water was evaluated over the range 25 mg/mL to 400 mg/mL using vapor pressure osmometry (Table 7). […] Any solutions with osmolality values below 270 mOsm/kg or above 300 mOsm/kg are considered hypotonic and hypertonic respectively.
Drug substance was added to sterile water for injection at 6 concentrations ranging from 15% to 40% and the osmolality values of the solutions were recorded. Sodium chloride was then added to sterile water for injection to make six sodium chloride solutions with osmolality values matching those of the poloxamer 188 solutions. An isotonic 15% poloxamer 188 solution was used as a comparator.

As to `[Cl-].[Na+]` [NaCl, Sodium chloride], the Osmolality runs as follows: (0.36% (w/w) NaCl in SWFI) 116 mOsm/kg; (0.74% (w/w) NaCl in SWFI) 224 mOsm/kg; (1.35% (w/w) NaCl in SWFI) 432 mOsm/kg; (3.13% (w/w) NaCl in SWFI) 995 mOsm/kg; ([…] (w/w) NaCl in SWFI) 690 mOsm/kg.
